# Measurements from patent US20260317269A1, “Oxamate Derivatives and Prodrugs to Prevent CaOx Stone Formation” (Rutgers, The State University of New Jersey, priority 2023, published 2026).
# Test: CaOx crystallization inhibition assay, remaining free oxalate in solution measured with EnzyChrom oxalate assay kit (Assay B)
# Type: biochemical
# Conditions: for pEC50 / Ratio: from EC50 in the CaOx crystallization inhibition assay; for pEC50: HEPES pH 6.8, r.t., footnote c not given; for pEC50 / EC50: 72 h; for EC50: inhibition of CaOx crystallization, 10 mM HEPES buffer, pH 6.8, 150 mM NaCl, supersaturated CaOx, r.t., remaining oxalate at OD 595 nm; for Ratio: ratio to citrate (citrate = 1)
# Excerpt: Calcium oxalate (CaOx) crystallization inhibition assays in HEPES buffer, pH 6.8 include Assay A and Assay B. Assay A: Fluorescence-based assay using Quin-2 to measure the concentration of free calcium in solution (Ex 340 nm/Em 495 nm) (FIG. 1). An example assay protocol is shown below.
# Assay B: Spectrophotometric assay using EnzyChrom™ oxalate assay kit from Bioassay Systems (EOXA-100) to measure the concentration of free oxalate in solution at OD 595 nm.
# For CaOx crystallization inhibition assay, equal volumes of 2 mM of CaCl2) was combined with […] of Na2Ox to generate […] supersaturated solutions of CaOx in 10 mM HEPES buffer, pH 6.8 containing 150 mM NaCl. The higher concentration of Ca^++ utilized in this assay was designed to mimic the typical calcium levels found in human urine. Following incubation with varying concentrations of inhibitors at r.t. for 72 h and subsequent centrifugation, the EnzyChrom™ oxalate assay kit (EOXA-100, BioAssay Systems) was employed to measure spectrophotometrically the remaining oxalate concentration in solution at 595 nm. This assay determined the EC50 for each inhibitor. This assay was used to determine the activity of about 50 oxamate derivatives synthesized. Separately, dose response curves can be obtained for calcium concentrations and inhibitors concentrations with supersaturated solution: 250 μM CaCl2+250 μM Na2C2O4 in 10 mM HEPES, pH 6.8+150 mM NaCl; Calcium concentration in supernatent after centrifuge was measured using Quin2 via a fluorescence assay (Ex 340 nm/Em 495 nm).
# Table 1 lists the EC50's obtained using this assay for various oxamate derivatives, along with other structure features such as linker length and number of OMA units for SAR analysis.
Compound,pEC50,EC50 [µM],Ratio
"O=C(O)CC(O)(CC(=O)O)C(=O)O [Citrate, reference compound]",3.18,665,1
"O=C(O)C(=O)NCCCC[C@H](NC(=O)C(=O)O)C(=O)O [Compound 9, L-Lysine N^α,N^ε-dioxalate]",4.20,63.8,10
O=C(O)C(=O)NCCNC(=O)C(=O)O [Compound 11b],3.89,127,5
"O=C(O)C(=O)NCCCC[C@H](NC(=O)C(=O)O)C(=O)NCCCCCNC(=O)[C@H](CCCCNC(=O)C(=O)O)NC(=O)C(=O)O [Compound 19e, N,N′-(1,5-pentylene)bis(L-Lysinamide) N^α, N^α′,N^ε,N^ε′-tetraoxalate]",5.44,3.6,185
"O=C(O)C(=O)NCCCC[C@H](NC(=O)C(=O)O)C(=O)NCCCCCCNC(=O)[C@H](CCCCNC(=O)C(=O)O)NC(=O)C(=O)O [Compound 19f, N,N′-(1,6-hexylene)bis(L-Lysinamide) N^α, N^α′,N^ε,N^ε′-tetraoxalate]",6.03,0.925,719
